Assay [1] relates to human TLR7 mutant (dIRR2). In words: TLR7 mutant (deletion in second leucine-rich repeat) NFκB-luc cellular reporter assay. In kind it is cell-based. The arrangement: unit not given here. The note with it: HEK293 NFκB-luc reporter, mutant TLR7, 6 hours incubation. The procedure:
(§1) The ability of compounds to activate human TLR7 and/or TLR8 was assessed in a cellular reporter assay using HEK293 cells transiently transfected with a TLR7 or TLR8 expression vector and NFκB-luc reporter construct. In one instance the TLR expression construct expresses the respective wild type sequence or a mutant sequence comprising a deletion in the second leucine-rich repeat of the TLR.
(§2) Briefly, HEK293 cells were grown in culture medium (DMEM supplemented with 10% FCS and 2 mM Glutamine). For transfection of cells in 10 cm dishes, cells were detached with Trypsin-EDTA, transfected with a mix of CMV-TLR7 or TLR8 plasmid (750 ng), NFκB-luc plasmid (375 ng) and a transfection reagent and incubated 24 hours at 37° C. in a humidified 5% CO2 atmosphere. Transfected cells were then detached with Trypsin-EDTA, washed in PBS and resuspended in medium to a density of 1.67×10^5 cells/mL. Thirty microliters of cells were then dispensed into each well in 384-well plates, where 10 μL of compound in 4% DMSO was already present. Following 6 hours incubation at 37° C., 5% CO2, the luciferase activity was determined by adding 15 μl of Steady Lite Plus substrate (Perkin Elmer) to each well and readout performed on a ViewLux ultraHTS microplate imager (Perkin Elmer). Dose response curves were generated from measurements performed in quadruplicates. Lowest effective concentrations (LEC) values, defined as the concentration that induces an effect which is at least two fold above the standard deviation of the assay, were determined for each compound.
In general terms: A reporter such as luciferase makes a cellular process visible.

In assay [2] the test system is HCV replicon (Huh-7 luc/neo cells). In words: Suppression of HCV replicon replication by conditioned media from PBMC. In kind it is cell-based, HCV type 1b. The note with it: Hepatitis C virus, compound concentration applied to PBMCs giving 50% reduction of replicon luciferase activity, read-out: PBMC-HUH7_EC50. The procedure: Activation of human TLR7 results in robust production of interferon by plasmacytoid dendritic cells present in human blood. The potential of compounds to induce interferon was evaluated by looking at the antiviral activity in the HCV replicon system upon incubation with conditioned media from peripheral blood mononuclear cells (PBMC). The HCV replicon assay is based on a bicistronic expression construct, as described by Lohmann et al. (Science (1999) 285: 110-113; Journal of Virology (2003) 77: 3007-15 3019) with modifications described by Krieger et al. (Journal of Virology (2001) 75: 4614-4624). The assay utilized the stably transfected cell line Huh-7 luc/neo harboring an RNA encoding a bicistronic expression construct comprising the wild type NS3-NS5B regions of HCV type 1b translated from an Internal Ribosome Entry Site (IRES) from encephalomyocarditis virus (EMCV), preceded by a reporter gene (Firefly-luciferase) and a selectable marker gene (neoR, neomycine phosphotransferase). The construct is flanked by 5′ and 3′ NTRs (non-translated regions) from HCV type 1b. Continued culture of the replicon cells in the presence of G418 (neoR) is dependent on the replication of the HCV RNA. The stably transfected replicon cells that replicate HCV RNA autonomously and to high levels, encoding inter alia luciferase, were used for profiling of the conditioned cell culture media.
Briefly, PBMCs were prepared from buffy coats of at least two donors using a standard Ficoll centrifugation protocol. Isolated PBMCs were resuspended in RPMI medium supplemented with 10% human AB serum and 2×10^5 cells/well were dispensed into 384-well plates containing compounds (70 μL total volume). After overnight incubation, 10 μL of supernatant was transferred to 384-well plates containing 2.2×10^3 replicon cells/well in 30 μL (plated the day before). Following 24 hours of incubation, replication was measured by assaying luciferase activity using 40 μL/well Steady Lite Plus substrate (Perkin Elmer) and measured with ViewLux ultraHTS microplate imager (Perkin Elmer). The inhibitory activity of each compound on the Huh7-luc/neo cells were reported as EC50 values, defined as the compound concentration applied to the PBMCs resulting in a 50% reduction of luciferase activity which in turn indicates the degree of replication of the replicon RNA on transfer of a defined amount of PBMC culture medium. Recombinant interferon α-2a (Roferon-A) was used as a standard control compound.

In another assay the target is T1, human TLR8 (Homo sapiens, UniProt Q9NR97).
T1 construct: expressed in transfected cells; host or cells: HEK293
T1 sequence (Q9NR97 27-1041): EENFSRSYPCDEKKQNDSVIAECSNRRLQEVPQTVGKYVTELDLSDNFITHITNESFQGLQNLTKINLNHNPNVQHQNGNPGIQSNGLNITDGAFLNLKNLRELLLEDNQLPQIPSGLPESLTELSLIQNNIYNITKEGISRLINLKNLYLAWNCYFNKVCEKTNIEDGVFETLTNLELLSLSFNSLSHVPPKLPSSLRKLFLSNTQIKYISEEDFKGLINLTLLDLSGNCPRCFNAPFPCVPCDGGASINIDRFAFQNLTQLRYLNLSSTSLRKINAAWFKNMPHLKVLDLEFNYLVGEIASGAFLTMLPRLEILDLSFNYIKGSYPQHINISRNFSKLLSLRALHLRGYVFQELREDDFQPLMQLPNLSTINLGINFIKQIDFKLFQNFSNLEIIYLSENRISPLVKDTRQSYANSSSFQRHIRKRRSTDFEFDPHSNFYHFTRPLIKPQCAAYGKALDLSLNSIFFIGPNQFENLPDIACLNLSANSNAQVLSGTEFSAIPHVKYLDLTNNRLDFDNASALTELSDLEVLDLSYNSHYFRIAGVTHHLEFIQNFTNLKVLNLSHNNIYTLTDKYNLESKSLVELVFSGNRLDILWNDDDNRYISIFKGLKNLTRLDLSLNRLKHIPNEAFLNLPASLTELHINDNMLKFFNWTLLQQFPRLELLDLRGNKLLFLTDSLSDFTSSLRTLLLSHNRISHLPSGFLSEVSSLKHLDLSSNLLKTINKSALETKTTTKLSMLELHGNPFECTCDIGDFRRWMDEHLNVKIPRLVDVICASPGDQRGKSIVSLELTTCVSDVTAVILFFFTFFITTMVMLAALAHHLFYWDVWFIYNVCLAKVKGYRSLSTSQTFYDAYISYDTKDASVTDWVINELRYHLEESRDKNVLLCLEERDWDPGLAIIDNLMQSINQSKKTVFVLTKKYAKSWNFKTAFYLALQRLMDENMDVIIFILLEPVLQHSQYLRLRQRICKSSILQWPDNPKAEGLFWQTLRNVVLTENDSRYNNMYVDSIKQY
In words: TLR8 wild type NFκB-luc cellular reporter assay. It is filed as cell-based. The arrangement: unit not given here. The note with it: HEK293 NFκB-luc reporter, 6 hours incubation; for TLR8-wt (LEC): second part of table. The method, boiled down: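 HEK293 cells transiently transfected with wild-type or second-LRR-deletion (dIRR2) TLR7/TLR8 plasmid plus NFκB-luc, 24 h; compound added for 6 h at 37 °C. Luciferase read-out, quadruplicate dose responses. LEC = lowest concentration giving effect at least two-fold above assay SD.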

Assay [3] deals with human TLR8 mutant (dIRR2). The experiment in a line: TLR8 mutant (deletion in second leucine-rich repeat) NFκB-luc cellular reporter assay. In kind it is cell-based. The arrangement: unit not given here. The note with it: HEK293 NFκB-luc reporter, mutant TLR8, 6 hours incubation. The procedure: as §1, §2

On to `CCCCNc1nc(N)nc2cc(OC)c(OC)cc12` [Compound 1], for which the TLR7-dIRR2_LEC in assay [1] was 0.4. Moreover, in assay [2], the EC50 turned out to be 1900 nM. On human TLR8, the TLR8-wt_LEC is on record as 1.1. Also, in assay [3], the TLR8-dIRR2_LEC turned out to be 0.6. In the same order, the values of `CCCC[C@@H](CCO)Nc1nc(N)nc2cc(OC)c(OC)cc12` [Compound 3] are 0.9, 600 nM, 5.5 and 2.4. In the case of `CCCC[C@@H](CCO)Nc1nc(N)nc2ccc(F)cc12` [Compound 83], the “TLR8-wt (LEC)” value on human TLR8 is reported as 0.42. For `CCCC[C@@H](CCO)Nc1nc(N)nc2cccc(F)c12` [Compound 84], the “TLR8-wt (LEC)” value at human TLR8 was determined as 0.10.

`CCCCNc1nc(N)nc2ccc(Br)cc12` [Compound 85]: at human TLR8, the “TLR8-wt (LEC)” value worked out at 0.10.

Turning to `CCC[C@@H](CO)Nc1nc(N)nc2cc(C(=O)OC)ccc12` [Compound 86], the “TLR8-wt (LEC)” value on human TLR8 amounted to 0.22. On the same count and under the same terms, as for `CCCC[C@@H](CCO)Nc1nc(N)nc2cc(OC)ccc12` [Compound 87], the figure is 0.16. For the compound `CCCC[C@@H](CCO)Nc1nc(N)nc2ccc(OC)cc12` [Compound 88], the “TLR8-wt (LEC)” value on human TLR8 was found to be 2.81. With `CCCCNc1nc(N)nc2cc(OC)c(OCc3ccccc3)cc12` [Compound 89], the “TLR8-wt (LEC)” value at human TLR8 worked out at 2.22.

Values taken from patent US8916575B2, “Quinazoline derivatives for the treatment of viral infections and further diseases” (Janssen R&D Ireland, priority 2011, dated 2014).
